From patent publication US10245261B2, “Substituted indol-5-ol derivatives and their therapeutic applications” (NantBioScience, Inc., priority 2013, dated 2019)

How the values were obtained:
Test in all cases: KinaseProfiler kinase assay
Assay type in all cases: biochemical
[1] = biological target: SAPK2b(h) (Homo sapiens, UniProt Q15759)
Outline: (§1)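 Steps: compound diluted from DMSO into MOPS/BSA assay buffer; MgATP mix with [γ-33P]ATP added to start; 40 min incubation at room temperature; phosphoric acid stop; filtermat spotting, washing in 50 mM phosphoric acid and methanol; scintillation counting.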

[2] = biological target: PKCγ(h) (Homo sapiens, UniProt P05129)
Outline: as §1

[3] = biological target: PDGFRα(V561D)(h) (Homo sapiens, UniProt P16234, V561D)
Outline: as §1

[4] = biological target: ACK1(h) (Homo sapiens, UniProt Q07912)
Outline: as §1

[5] = biological target: PKG1α(h) (Homo sapiens, UniProt Q13976)
Outline: as §1

[6] = biological target: TSSK1(h) (Homo sapiens, UniProt Q9BXA7)
Outline: as §1

[7] = biological target: TSSK2(h) (Homo sapiens, UniProt Q96PF2)
Outline: as §1

[8] = biological target: Tie2(Y897S)(h) (Homo sapiens, UniProt Q02763, Y897S)
Outline: as §1

[9] = biological target: PKA(h) (Homo sapiens, UniProt P17612)
Outline: as §1

[10] = biological target: WNK3(h) (Homo sapiens, UniProt Q9BYP7)
Outline: as §1

[11] = biological target: ZIPK(h) (Homo sapiens, UniProt O43293)
Outline: as §1

[12] = biological target: Rse(h) (Homo sapiens, UniProt Q06418)
Outline: as §1

[13] = biological target: CDK2/cyclinA(h) (Homo sapiens, UniProt P24941)
Outline: as §1

[14] = biological target: EphA4(h) (Homo sapiens, UniProt P54764)
Outline: as §1

[15] = biological target: Itk(h) (Homo sapiens, UniProt Q08881)
Outline: as §1

[16] = biological target: ErbB4(h) (Homo sapiens, UniProt Q15303)
Outline: as §1

[17] = biological target: EphA2(h) (Homo sapiens, UniProt P29317)
Outline: as §1

[18] = biological target: PKBβ(h) (Homo sapiens, UniProt P31751)
Outline: as §1

[19] = biological target: EGFR(h) (Homo sapiens, UniProt P00533)
Outline: as §1

[20] = biological target: PAK2(h) (Homo sapiens, UniProt Q13177)
Outline: as §1

[21] = biological target: PKD2(h) (Homo sapiens, UniProt Q9BZL6)
Outline: as §1

[22] = biological target: Blk(m) (Mus musculus, UniProt P16277)
Outline: as §1

[23] = biological target: LOK(h) (Homo sapiens, UniProt O94804)
Outline: as §1

[24] = biological target: ROCK-II(h) (Homo sapiens, UniProt O75116)
Outline: as §1

[25] = biological target: TAO2(h) (Homo sapiens, UniProt Q9UL54)
Outline: as §1

[26] = biological target: PI3KC2γ(h) (Homo sapiens, UniProt O75747)
Outline: as §1

[27] = biological target: PI3 Kinase (p110α(E542K)/p85α)(m) (Mus musculus, UniProt P42337, E542K)
Outline: as §1

[28] = biological target: GRK5(h) (Homo sapiens, UniProt P34947)
Outline: as §1

[29] = biological target: Arg(m) (Mus musculus, UniProt Q4JIM5)
Outline: as §1

[30] = biological target: TBK1(h) (Homo sapiens, UniProt Q9UHD2)
Outline: as §1

[31] = biological target: Rsk2(h) (Homo sapiens, UniProt P51812)
Outline: as §1

[32] = biological target: EphB3(h) (Homo sapiens, UniProt P54753)
Outline: as §1

Chain of ACK1(h) (Q07912 whole entry): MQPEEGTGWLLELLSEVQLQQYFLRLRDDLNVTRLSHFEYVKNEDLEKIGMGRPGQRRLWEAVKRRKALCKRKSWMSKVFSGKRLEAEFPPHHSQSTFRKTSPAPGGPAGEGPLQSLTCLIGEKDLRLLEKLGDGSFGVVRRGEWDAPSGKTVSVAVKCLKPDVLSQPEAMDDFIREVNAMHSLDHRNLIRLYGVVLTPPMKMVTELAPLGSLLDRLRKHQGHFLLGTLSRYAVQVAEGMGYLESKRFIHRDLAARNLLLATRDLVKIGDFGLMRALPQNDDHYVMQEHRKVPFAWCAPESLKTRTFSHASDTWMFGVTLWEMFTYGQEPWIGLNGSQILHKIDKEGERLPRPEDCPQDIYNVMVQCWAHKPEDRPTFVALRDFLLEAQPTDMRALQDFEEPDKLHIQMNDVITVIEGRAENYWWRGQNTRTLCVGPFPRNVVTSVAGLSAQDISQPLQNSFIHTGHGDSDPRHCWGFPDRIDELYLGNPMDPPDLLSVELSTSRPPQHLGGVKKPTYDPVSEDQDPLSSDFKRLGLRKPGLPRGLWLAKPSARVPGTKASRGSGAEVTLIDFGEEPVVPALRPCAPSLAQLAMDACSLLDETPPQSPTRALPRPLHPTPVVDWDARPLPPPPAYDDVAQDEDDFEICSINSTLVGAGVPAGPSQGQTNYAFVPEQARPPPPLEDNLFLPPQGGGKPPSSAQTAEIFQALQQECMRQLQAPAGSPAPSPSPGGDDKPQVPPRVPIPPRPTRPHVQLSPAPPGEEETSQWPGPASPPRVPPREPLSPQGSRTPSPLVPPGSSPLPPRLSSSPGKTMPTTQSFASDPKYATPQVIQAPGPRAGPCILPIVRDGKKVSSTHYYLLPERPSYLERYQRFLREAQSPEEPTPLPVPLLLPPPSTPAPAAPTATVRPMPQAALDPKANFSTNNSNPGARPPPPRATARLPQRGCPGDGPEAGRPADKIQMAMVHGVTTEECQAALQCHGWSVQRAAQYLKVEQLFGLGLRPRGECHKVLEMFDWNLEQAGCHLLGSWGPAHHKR
Chain of Arg(m) (Q4JIM5 whole entry): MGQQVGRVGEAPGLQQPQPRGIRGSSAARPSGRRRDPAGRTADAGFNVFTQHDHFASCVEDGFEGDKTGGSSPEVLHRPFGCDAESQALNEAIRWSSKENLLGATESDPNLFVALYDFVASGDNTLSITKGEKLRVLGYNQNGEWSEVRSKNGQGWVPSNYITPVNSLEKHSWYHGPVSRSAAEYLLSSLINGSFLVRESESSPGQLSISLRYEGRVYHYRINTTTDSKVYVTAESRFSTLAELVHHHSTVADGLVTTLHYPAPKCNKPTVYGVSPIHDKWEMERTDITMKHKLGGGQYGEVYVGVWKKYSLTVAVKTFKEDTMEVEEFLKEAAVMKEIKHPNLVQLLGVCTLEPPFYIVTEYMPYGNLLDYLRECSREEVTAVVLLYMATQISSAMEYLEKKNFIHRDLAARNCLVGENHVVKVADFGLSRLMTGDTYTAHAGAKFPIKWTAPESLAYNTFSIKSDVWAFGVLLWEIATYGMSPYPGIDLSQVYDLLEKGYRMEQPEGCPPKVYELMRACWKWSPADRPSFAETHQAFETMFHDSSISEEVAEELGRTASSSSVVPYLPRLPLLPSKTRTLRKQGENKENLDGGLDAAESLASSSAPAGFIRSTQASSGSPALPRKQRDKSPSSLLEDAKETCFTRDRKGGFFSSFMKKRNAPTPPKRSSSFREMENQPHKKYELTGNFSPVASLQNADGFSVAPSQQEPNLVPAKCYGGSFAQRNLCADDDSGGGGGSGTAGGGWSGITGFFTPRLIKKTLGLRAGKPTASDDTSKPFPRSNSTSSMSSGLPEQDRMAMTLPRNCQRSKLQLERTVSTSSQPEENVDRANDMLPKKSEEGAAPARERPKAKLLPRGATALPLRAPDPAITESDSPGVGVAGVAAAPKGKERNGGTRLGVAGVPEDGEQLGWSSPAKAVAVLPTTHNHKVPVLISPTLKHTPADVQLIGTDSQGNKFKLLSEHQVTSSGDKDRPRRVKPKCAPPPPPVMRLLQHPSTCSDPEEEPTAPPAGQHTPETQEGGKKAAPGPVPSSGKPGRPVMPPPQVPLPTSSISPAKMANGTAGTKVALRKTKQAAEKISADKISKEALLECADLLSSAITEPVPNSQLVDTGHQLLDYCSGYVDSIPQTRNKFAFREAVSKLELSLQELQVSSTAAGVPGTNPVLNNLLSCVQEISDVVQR
Chain of TBK1(h) (Q9UHD2 whole entry): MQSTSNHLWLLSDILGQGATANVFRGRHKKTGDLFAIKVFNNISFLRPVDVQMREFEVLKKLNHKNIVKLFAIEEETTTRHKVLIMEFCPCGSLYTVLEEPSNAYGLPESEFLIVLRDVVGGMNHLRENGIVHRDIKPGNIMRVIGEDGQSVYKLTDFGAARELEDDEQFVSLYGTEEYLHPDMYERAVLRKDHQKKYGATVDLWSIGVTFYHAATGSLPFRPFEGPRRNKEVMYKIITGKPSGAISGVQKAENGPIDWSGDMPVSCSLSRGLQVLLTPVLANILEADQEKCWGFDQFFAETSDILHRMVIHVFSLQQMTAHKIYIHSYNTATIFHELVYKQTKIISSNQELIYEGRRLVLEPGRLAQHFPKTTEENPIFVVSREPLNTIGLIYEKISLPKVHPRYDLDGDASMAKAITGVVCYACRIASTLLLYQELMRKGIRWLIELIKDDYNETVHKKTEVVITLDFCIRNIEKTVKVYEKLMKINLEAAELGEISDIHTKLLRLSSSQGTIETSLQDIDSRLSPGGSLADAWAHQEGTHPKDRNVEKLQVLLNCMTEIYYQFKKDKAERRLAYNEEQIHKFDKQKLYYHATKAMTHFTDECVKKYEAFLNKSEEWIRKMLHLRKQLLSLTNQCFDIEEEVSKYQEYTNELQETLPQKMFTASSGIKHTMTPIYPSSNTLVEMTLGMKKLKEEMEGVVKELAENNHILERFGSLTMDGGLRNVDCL
Chain of Tie2(Y897S)(h) (Q02763 23-1124 Y897S): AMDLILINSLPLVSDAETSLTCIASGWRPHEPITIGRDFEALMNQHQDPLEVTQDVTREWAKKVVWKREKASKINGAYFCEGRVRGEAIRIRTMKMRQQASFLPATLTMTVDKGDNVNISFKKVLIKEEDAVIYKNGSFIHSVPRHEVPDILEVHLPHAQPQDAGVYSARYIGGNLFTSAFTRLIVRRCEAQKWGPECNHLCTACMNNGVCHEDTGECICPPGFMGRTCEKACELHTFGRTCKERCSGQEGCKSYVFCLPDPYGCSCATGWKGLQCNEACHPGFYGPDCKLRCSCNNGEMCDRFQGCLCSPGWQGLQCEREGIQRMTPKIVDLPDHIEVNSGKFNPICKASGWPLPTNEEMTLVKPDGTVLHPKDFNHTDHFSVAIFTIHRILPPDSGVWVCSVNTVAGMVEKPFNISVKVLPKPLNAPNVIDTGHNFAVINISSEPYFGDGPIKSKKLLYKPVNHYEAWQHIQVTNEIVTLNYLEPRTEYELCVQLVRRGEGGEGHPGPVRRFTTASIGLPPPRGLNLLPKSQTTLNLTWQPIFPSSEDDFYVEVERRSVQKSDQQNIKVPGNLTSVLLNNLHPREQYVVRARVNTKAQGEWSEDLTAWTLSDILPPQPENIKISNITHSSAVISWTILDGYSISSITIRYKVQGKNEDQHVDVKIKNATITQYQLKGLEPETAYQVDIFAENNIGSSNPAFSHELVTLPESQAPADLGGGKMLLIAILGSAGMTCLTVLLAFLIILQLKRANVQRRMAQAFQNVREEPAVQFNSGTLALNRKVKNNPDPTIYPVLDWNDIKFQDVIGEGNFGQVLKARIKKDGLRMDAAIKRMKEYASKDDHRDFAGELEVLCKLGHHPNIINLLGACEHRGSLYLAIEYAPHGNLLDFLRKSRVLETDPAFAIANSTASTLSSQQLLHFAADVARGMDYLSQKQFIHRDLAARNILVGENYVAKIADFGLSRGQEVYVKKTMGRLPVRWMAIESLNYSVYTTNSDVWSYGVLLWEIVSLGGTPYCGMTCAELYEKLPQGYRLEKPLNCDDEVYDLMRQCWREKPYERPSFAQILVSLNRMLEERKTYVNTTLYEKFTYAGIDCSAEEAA
Chain of PKBβ(h) (P31751 whole entry): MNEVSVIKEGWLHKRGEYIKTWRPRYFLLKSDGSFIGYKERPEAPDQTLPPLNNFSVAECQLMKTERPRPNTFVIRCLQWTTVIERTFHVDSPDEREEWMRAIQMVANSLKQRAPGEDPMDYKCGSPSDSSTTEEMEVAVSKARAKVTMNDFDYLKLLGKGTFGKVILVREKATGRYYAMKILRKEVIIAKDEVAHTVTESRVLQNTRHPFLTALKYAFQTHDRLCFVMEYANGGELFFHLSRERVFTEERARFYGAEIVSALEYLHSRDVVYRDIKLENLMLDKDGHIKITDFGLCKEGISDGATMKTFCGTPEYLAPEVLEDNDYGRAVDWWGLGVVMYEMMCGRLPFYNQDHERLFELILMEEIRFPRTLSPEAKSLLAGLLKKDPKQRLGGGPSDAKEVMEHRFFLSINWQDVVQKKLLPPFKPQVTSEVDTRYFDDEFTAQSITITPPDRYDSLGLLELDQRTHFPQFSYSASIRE
Chain of SAPK2b(h) (Q15759 whole entry): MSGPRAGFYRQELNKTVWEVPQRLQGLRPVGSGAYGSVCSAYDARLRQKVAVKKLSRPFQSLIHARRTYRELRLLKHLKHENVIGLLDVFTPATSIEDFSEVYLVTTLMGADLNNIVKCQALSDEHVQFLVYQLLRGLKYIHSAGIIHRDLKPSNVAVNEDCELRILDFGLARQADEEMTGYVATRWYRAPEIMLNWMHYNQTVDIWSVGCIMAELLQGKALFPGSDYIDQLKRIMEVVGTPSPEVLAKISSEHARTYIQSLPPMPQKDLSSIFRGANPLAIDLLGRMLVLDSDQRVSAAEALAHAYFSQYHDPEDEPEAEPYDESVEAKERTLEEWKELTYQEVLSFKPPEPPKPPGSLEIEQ

Compound | inhibition at 0.1 µM [1] | inhibition at 0.1 µM [2] | inhibition at 0.1 µM [3] | inhibition at 0.1 µM [4] | inhibition at 0.1 µM [5] | inhibition at 0.1 µM [6] | inhibition at 0.1 µM [7] | inhibition at 0.1 µM [8] | inhibition at 0.1 µM [9] | inhibition at 0.1 µM [10] | inhibition at 0.1 µM [11] | inhibition at 0.1 µM [12] | inhibition at 0.1 µM [13] | inhibition at 0.1 µM [14] | inhibition at 0.1 µM [15] | inhibition at 0.1 µM [16] | inhibition at 0.1 µM [17] | inhibition at 0.1 µM [18] | inhibition at 0.1 µM [19] | inhibition at 0.1 µM [20] | also measured
Cc1cc2c(F)c(Oc3nc(Nc4cc(C5CC5)[nH]n4)cc(N4CCN(C)CC4)n3)ccc2[nH]1 [Compound 10] | -2% | -8% | 86% | 99% | -25% | 4% | 5% | 91% | 2% | 1% | 1% | 3% | 5% | 52% | 31% | 13% | 96% | -35% | -8% | 16% | inhibition at 0.1 µM [21]: -5%; inhibition at 0.1 µM [22]: 84%; inhibition at 0.1 µM [23]: 73%; inhibition at 0.1 µM [24]: 11%; inhibition at 0.1 µM [25]: 18%; inhibition at 0.1 µM [26]: 27%; inhibition at 0.1 µM [27]: 1%; inhibition at 0.1 µM [28]: 18%; inhibition at 0.1 µM [29]: 99%; inhibition at 0.1 µM [30]: 71%; inhibition at 0.1 µM [31]: 37%; inhibition at 0.1 µM [32]: -8%
Cc1cc2c(F)c(Oc3nc(Nc4cc(C5CC5)[nH]n4)cc(N4CCNCC4)n3)ccc2[nH]1 [Compound 11, N-(5-cyclopropyl-1H-pyrazol-3-yl)-2-((4-fluoro-2-methyl-1H-indol-5-yl)oxy)-6-(piperazin-1-yl)pyrimidin-4-amine] | -6% | -5% | 72% | 95% | -5% | 3% | 2% | 93% | -12% | 8% | 7% | 11% | 3% | 47% | 54% | -5% | 98% | -9% | -6% | 0% | inhibition at 0.1 µM [21]: -1%; inhibition at 0.1 µM [22]: 93%; inhibition at 0.1 µM [23]: 86%; inhibition at 0.1 µM [24]: 3%; inhibition at 0.1 µM [25]: 16%; inhibition at 0.1 µM [26]: -2%; inhibition at 0.1 µM [27]: 1%; inhibition at 0.1 µM [28]: -2%; inhibition at 0.1 µM [29]: 102%; inhibition at 0.1 µM [30]: 95%; inhibition at 0.1 µM [31]: 7%; inhibition at 0.1 µM [32]: -18%
